Measurements published in PubChem BioAssay AID1259407 (Chemical Carcinogenesis Research Information System (CCRIS), 2018).
Activity calls are given as the source filed them. How the calls were made is not given here.

Test system: CCRIS mutagenicity, Ames/micronucleus/aberration tests
Assay: CCRIS mutagenicity studies
[1] = Test System: AMES SALMONELLA TYPHIMURIUM, Strain/Indicator: TA98, Metabolic Activation: NONE, Method: PREINCUBATION
[2] = Test System: AMES SALMONELLA TYPHIMURIUM, Strain/Indicator: TA100, Metabolic Activation: NONE, Method: PREINCUBATION
[3] = Test System: AMES SALMONELLA TYPHIMURIUM, Strain/Indicator: TA98, Metabolic Activation: NONE, Method: STANDARD PLATE
[4] = Test System: AMES SALMONELLA TYPHIMURIUM, Strain/Indicator: TA100, Metabolic Activation: NONE, Method: STANDARD PLATE

With `ClCC(Cl)CCl` as the molecule, how does the mutagenic call (End Point: IN VITRO CHROMOSOMAL ABERRATIONS, Test System: CHL CELLS, Metabolic Activation: NONE) read?
Its mutagenic call is “inactive; negative”.

What about the mutagenic call (End Point: IN VITRO CHROMOSOMAL ABERRATIONS, Test System: CHL CELLS, Metabolic Activation: RAT, LIVER, S-9, SODIUM PHENOBARBITAL AND 5,6-BENZOFLAVONE) of the same molecule?
The mutagenic call was “active; positive (structural changes)”.

And the mutagenic call (Test System: AMES SALMONELLA TYPHIMURIUM, Strain/Indicator: TA97, Metabolic Activation: HAMSTER, LIVER, S-9, AROCLOR 1254 (10%), Method: PREINCUBATION)?
The mutagenic call was “active; positive”.

What about the mutagenic call (Test System: AMES SALMONELLA TYPHIMURIUM, Strain/Indicator: TA97, Metabolic Activation: NONE, Method: PREINCUBATION) of the same molecule?
The mutagenic call was “inactive; negative”.

What about the mutagenic call (Test System: AMES SALMONELLA TYPHIMURIUM, Strain/Indicator: TA97, Metabolic Activation: RAT, LIVER, S-9, AROCLOR 1254 (10%), Method: PREINCUBATION) of the same molecule?
The mutagenic call was “active; positive”.

And the mutagenic call (Test System: AMES SALMONELLA TYPHIMURIUM, Strain/Indicator: TA98, Metabolic Activation: HAMSTER, LIVER, S-9, AROCLOR 1254 (10%), Method: PREINCUBATION)?
The mutagenic call was “active; positive”.

And the mutagenic call (Test System: AMES SALMONELLA TYPHIMURIUM, Strain/Indicator: TA98, Metabolic Activation: HAMSTER, LIVER, S-9, AROCLOR 1254, Method: PREINCUBATION)?
Its mutagenic call is “inactive; negative”.

And the mutagenic call [1]?
The mutagenic call was “inactive; negative”.

What about the mutagenic call (Test System: AMES SALMONELLA TYPHIMURIUM, Strain/Indicator: TA98, Metabolic Activation: RAT, LIVER, S-9, AROCLOR 1254, Method: PREINCUBATION) of the same molecule?
Its mutagenic call is “inactive; negative”.

What about the mutagenic call (Test System: AMES SALMONELLA TYPHIMURIUM, Strain/Indicator: TA100, Metabolic Activation: HAMSTER, LIVER, S-9, AROCLOR 1254 (10%), Method: PREINCUBATION) of the same molecule?
Its mutagenic call is “active; positive”.

What about the mutagenic call (Test System: AMES SALMONELLA TYPHIMURIUM, Strain/Indicator: TA100, Metabolic Activation: HAMSTER, LIVER, S-9, AROCLOR 1254, Method: PREINCUBATION) of the same molecule?
The mutagenic call was “active; positive”.

What about the mutagenic call [2] of the same molecule?
Its mutagenic call is “inactive; negative”.

And the mutagenic call (Test System: AMES SALMONELLA TYPHIMURIUM, Strain/Indicator: TA100, Metabolic Activation: RAT, LIVER, MICROSOMES, PHENOBARBITAL, NADPH COFACTORS, Method: STANDARD PLATE)?
Its mutagenic call is “active; positive”.

What about the mutagenic call (Test System: AMES SALMONELLA TYPHIMURIUM, Strain/Indicator: TA100, Metabolic Activation: RAT, LIVER, MICROSOMES, PHENOBARBITAL, Method: STANDARD PLATE) of the same molecule?
Its mutagenic call is “inactive; negative”.

And the mutagenic call (Test System: AMES SALMONELLA TYPHIMURIUM, Strain/Indicator: TA100, Metabolic Activation: RAT, LIVER, S-9, AROCLOR 1254 (10%), Method: PREINCUBATION)?
The mutagenic call was “active; positive”.

And the mutagenic call (Test System: AMES SALMONELLA TYPHIMURIUM, Strain/Indicator: TA100, Metabolic Activation: RAT, LIVER, S-9, AROCLOR 1254, Method: PREINCUBATION)?
Its mutagenic call is “active; positive”.

What about the mutagenic call (Test System: AMES SALMONELLA TYPHIMURIUM, Strain/Indicator: TA1535, Metabolic Activation: HAMSTER, LIVER, S-9, AROCLOR 1254 (10%), Method: PREINCUBATION) of the same molecule?
The mutagenic call was “active; positive”.

What about the mutagenic call (Test System: AMES SALMONELLA TYPHIMURIUM, Strain/Indicator: TA1535, Metabolic Activation: HAMSTER, LIVER, S-9, AROCLOR 1254, Method: PREINCUBATION) of the same molecule?
Its mutagenic call is “active; positive”.

What about the mutagenic call (Test System: AMES SALMONELLA TYPHIMURIUM, Strain/Indicator: TA1535, Metabolic Activation: NONE, Method: PREINCUBATION) of the same molecule?
The mutagenic call was “inactive; negative”.

What about the mutagenic call (Test System: AMES SALMONELLA TYPHIMURIUM, Strain/Indicator: TA1535, Metabolic Activation: RAT, LIVER, S-9, AROCLOR 1254 (10%), Method: PREINCUBATION) of the same molecule?
The mutagenic call was “active; positive”.

What about the mutagenic call (Test System: AMES SALMONELLA TYPHIMURIUM, Strain/Indicator: TA1535, Metabolic Activation: RAT, LIVER, S-9, AROCLOR 1254, Method: PREINCUBATION) of the same molecule?
Its mutagenic call is “active; positive”.

What about the mutagenic call (Test System: AMES SALMONELLA TYPHIMURIUM, Strain/Indicator: TA1537, Metabolic Activation: HAMSTER, LIVER, S-9, AROCLOR 1254 (10%), Method: PREINCUBATION) of the same molecule?
The mutagenic call was “inactive; negative”.

What about the mutagenic call (Test System: AMES SALMONELLA TYPHIMURIUM, Strain/Indicator: TA1537, Metabolic Activation: NONE, Method: PREINCUBATION) of the same molecule?
Its mutagenic call is “inactive; negative”.

What about the mutagenic call (Test System: AMES SALMONELLA TYPHIMURIUM, Strain/Indicator: TA1537, Metabolic Activation: RAT, LIVER, S-9, AROCLOR 1254 (10%), Method: PREINCUBATION) of the same molecule?
The mutagenic call was “inactive; negative”.

What about the mutagenic call (Test System: AMES SALMONELLA TYPHIMURIUM, Strain/Indicator: TA1537, Metabolic Activation: RAT, LIVER, S-9, AROCLOR 1254, Method: PREINCUBATION) of the same molecule?
Its mutagenic call is “inactive; negative”.

And the mutagenic call (Test System: MOUSE LYMPHOMA, Strain/Indicator: L5178Y (TK+/TK-), Metabolic Activation: NONE, Method: SUSPENSION/PLATE)?
Its mutagenic call is “inactive; negative”.

And the mutagenic call (Test System: MOUSE LYMPHOMA, Strain/Indicator: L5178Y (TK+/TK-), Metabolic Activation: RAT, LIVER, S-9, AROCLOR 1254, Method: SUSPENSION/PLATE)?
The mutagenic call was “active; positive”.

`O=C1C=C(N2CC2)C(=O)C(N2CC2)=C1N1CC1` was tested. Which mutagenic call (Test System: UDS RODENT PRIMARY, Strain/Indicator: THY INCORP (NON-S-PHASE), Metabolic Activation: NONE, Method: LIQUID SCINTILLATION COUNTING) did it give?
The mutagenic call was “active; positive”.

`CC(=O)OCN(N=O)c1ccccc1` was tested. Which mutagenic call (Test System: AMES SALMONELLA TYPHIMURIUM, Strain/Indicator: TA1537, Metabolic Activation: NONE, Method: LIQUID INCUBATION) did it give?
Its mutagenic call is “active; positive”.

Which mutagenic call (Test System: AMES SALMONELLA TYPHIMURIUM, Strain/Indicator: TA97A, Metabolic Activation: NONE, Method: PREINCUBATION) does the source give for `Cc1ccc2cc3ccc4ccccc4c3nc2c1` here?
Its mutagenic call is “inactive; negative”.

What about the mutagenic call [1] of the same molecule?
Its mutagenic call is “inactive; negative”.

And the mutagenic call [2]?
The mutagenic call was “active; positive”.

And the mutagenic call (Test System: AMES SALMONELLA TYPHIMURIUM, Strain/Indicator: TA102, Metabolic Activation: NONE, Method: PREINCUBATION)?
Its mutagenic call is “inactive; negative”.

Which results are given for `CS(=O)(=O)n1ncc(Cl)c(Cl)c1=O`?
mutagenic call [3]: inactive; negative; mutagenic call (Test System: AMES SALMONELLA TYPHIMURIUM, Strain/Indicator: TA98, Metabolic Activation: RAT, LIVER, S-9, AROCLOR 1254, Method: STANDARD PLATE): inactive; negative; mutagenic call [4]: active; positive; mutagenic call (Test System: AMES SALMONELLA TYPHIMURIUM, Strain/Indicator: TA100, Metabolic Activation: RAT, LIVER, S-9, AROCLOR 1254, Method: STANDARD PLATE): active; positive; mutagenic call (Test System: AMES SALMONELLA TYPHIMURIUM, Strain/Indicator: TA1535, Metabolic Activation: NONE, Method: STANDARD PLATE): inactive; negative; mutagenic call (Test System: AMES SALMONELLA TYPHIMURIUM, Strain/Indicator: TA1535, Metabolic Activation: RAT, LIVER, S-9, AROCLOR 1254, Method: STANDARD PLATE): inactive; negative; mutagenic call (Test System: AMES SALMONELLA TYPHIMURIUM, Strain/Indicator: TA1537, Metabolic Activation: NONE, Method: STANDARD PLATE): inactive; negative; mutagenic call (Test System: AMES SALMONELLA TYPHIMURIUM, Strain/Indicator: TA1537, Metabolic Activation: RAT, LIVER, S-9, AROCLOR 1254, Method: STANDARD PLATE): inactive; negative

With `CCOP(=O)=O.CCOP(=O)=O.CCOP(=O)=O.[Al+3]` as the molecule, how does the mutagenic call (End Point: IN VIVO MICRONUCLEUS, Test System: BONE MARROW POLYCHROMATIC ERYTHROCYTES, Species: MOUSE, Strain/Sex: SWISS/MALE, FEMALE, Route: IP 2X IN AQUEOUS SUSPENSION WITHIN 24 HR) read?
Its mutagenic call is “active; positive”.

`CC(O)/C(=C(\c1ccccc1)c1ccc(OCCN(C)C)cc1)c1ccccc1` (stereo unspecified) was tested. Which mutagenic call (Test System: CHINESE HAMSTER V-79, Strain/Indicator: V79HHST (HPRT)/6-THIOGUANINE, Metabolic Activation: NONE) did it give?
Its mutagenic call is “inactive; negative”.

What about the mutagenic call (Test System: CHINESE HAMSTER V-79, Strain/Indicator: V79RHST (HPRT)/6-THIOGUANINE, Metabolic Activation: NONE) of the same molecule?
The mutagenic call was “active; positive”.

`ClCc1cc2c3c(cccc3c1)-c1ccccc1-2` was tested. Which mutagenic call [3] did it give?
The mutagenic call was “active; positive”.

And the mutagenic call [4]?
Its mutagenic call is “active; positive”.
